# Measured values as given in patent US7217735B1, “Methods and compositions for enhancing delivery of therapeutic agents to tissues” (priority 1999, dated 2007).
# Where two headings read alike, the source gives them in different places. Marks after values point to notes of the source that are not given here.
# Columns and labels:
# MAT-LyLu prostate tumor = test: Effect of pretreatment on paclitaxel accumulation in tumors, in vivo infusion; design: species or system Copenhagen rat
# Excerpt: (§1) Experiments were initiated when the tumor was between 0.3 to 0.5 g in size.
# (§2) The jugular vein and carotid artery of tumor-bearing rats were catheterized, under light ether anesthesia, with polyethylene tubing (PE-50, Becton Dickinson Co., Sparks, Md.) for drug administration and for blood sampling, respectively. Each catheter was exteriorized to the dorsal side of the neck and attached to a second polyethylene tubing (PE-50), respectively. The catheters and tubings were covered with a metal coil tubing. […] Blood samples (0.12 or 0.22 ml) were obtained at predetermined times. Plasma fraction was obtained by centrifugation at 2,000 g for 3 min, and stored at −70° C. for HPLC analysis. At the end of the experiment, tumors were harvested. One quarter of a tumor was fixed in 10% neutralized formalin solution and processed for tissue morphology evaluation. Tumor cell density and the fraction of apoptotic cells were determined by counting the number of tumor cells and apoptotic cells in nonnecrotic regions at 400× magnification (5 microscopic fields/tumor). The remainder of the tumor was stored at […] until HPLC analysis for drug concentration.
# (§3) Preweighed tumors were homogenized, mixed with the internal standard, 100:1 cephalomanine (10:g/ml in methanol). The HPLC stationary phase consisted of a cleaning column (NovaPak C8, 75×3.9 mm ID, 4:m particle size, Waters Associates, Milford, Mass.) and an analytical column (Bakerbond Octadecyl, 250×4.6 mm ID, 5:m particle size, J. T. Baker, Phillipsburg, N.J.). Samples were injected onto the clean-up column and eluted with the clean-up mobile phase (37.5% acetonitrile in Water) at 1 ml/min.
# [1] = as above; design: species or system Copenhagen rat; settings: male, Copenhagen, rat; for Kp: tumor and plasma, intravenous, read-out: Tumor-to-plasma conc. ratio at end of Tx
# Excerpt: as §1, §2, §3
# FaDu xenograft tumors = test: Paclitaxel uptake in tumor histocultures
# Excerpt: FaDu cells were obtained from American Type Culture Collection (Rockville, Mass.). MCF7 cells were obtained from Dr. Kenneth Cowan at the National Cancer Institute. Cells were harvested from subconfluent cultures using trypsin and resuspended in fresh medium before plating. Cells with greater than 90% viability, as determined by trypan blue exclusion, were used for tumor implantation. Cells were centrifuged and resuspended in Matrigel (1:1 v/v). […] The tumor establishment was achieved by subcutaneously injecting 10^6 cells (0.1–0.2 ml) with a 18 gauge needle at left and right sides of the upper back. The tumor was removed when it reached a size of 0.5 to 1 g and used for experiments.
# The specimens were washed with culture medium for three times and dissected into about 1 mm^3 fragments under sterile conditions. The culture medium consisted of a 1:1 mixture of MEM/DMEM for patient tumors, MEM for FaDu xenografts, and RPMI1640 for PC3 xenografts, supplemented with 9% heat-inactivated FBS, 2 mM glutamine, 0.1 mM non-essential amino acids (only for MEM/DMEM), 90:g/ml gentamicin and 90:g/ml cefotaxime sodium. Five histoculture fragments were placed on a 1 cm^2 piece of presoaked collagen gel and incubated with 4 ml culture medium in 6-well plates. After 2 to 4 days, tumor histocultures were used to study the kinetics of drug penetration.
# At predetermined times, 100 μl of medium was taken from each well and the histocultures were removed from the plates. The histocultures were blot-dried on a filter paper and their weights were measured. One hundred 1 of medium or tumor samples were mixed with 0.5 ml of Solvable tissue/gel solubilizer, incubated at 50° C. in an oven overnight, and analyzed for total radioactivity using liquid scintillation counting. […] Drug concentration in tissue was calculated as (drug amount) divided by (tissue weight) and was expressed in molar terms.
# For the FaDu xenograft tumor, specimens from individual animals were sufficiently large that each tumor was used for studying uptake and efflux at all four drug concentrations.
# FaDu tumor histocultures = test: Apoptotic fraction and cell density with or without apoptosis-inducing pretreatment, in vitro; type: cell-based, human; design: Cell density: unit not given here; settings: 10 nM [3H]paclitaxel
# Protocol: Drug treatment was as previously described.
# Two studies were performed.
# [2] = Group 1: 5 mg/kg/hr x 1 hr, then 0.83 x 6 hr at 24 hr, total 10 mg/kg
# [3] = Group 2A: 5 mg/kg/hr x 1 hr at 0 hr, total 5 mg/kg, at 1 hr
# [4] = Group 2B: 5 mg/kg/hr x 1 hr at 0 hr, total 5 mg/kg, at 24 hr
# [5] = Group 3: 0.83 mg/kg/hr x 6 hr at 0 hr, total 5 mg/kg
# [6] = Group 4: 5 mg/kg/hr x 1 hr at 0 hr + 0.83 x 6 hr at 1.2 hr, total 10 mg/kg
# [7] = Group 5: 0.83 mg/kg/hr x 12 hr, total 10 mg/kg
# [8] = 4 hr, with pretreatment by 1:M nonradiolabeled paclitaxel
# [9] = 16 hr, with pretreatment by 1:M nonradiolabeled paclitaxel
# [10] = 24 hr, with pretreatment by 1:M nonradiolabeled paclitaxel
# [11] = 32 hr, with pretreatment by 1:M nonradiolabeled paclitaxel
smiles,measurement,setting,value
CC(=O)O[C@H]1C(=O)[C@@]2(C)[C@H]([C@H](OC(=O)c3ccccc3)[C@]3(O)C[C@H](OC(=O)[C@H](O)[C@@H](NC(=O)c4ccccc4)c4ccccc4)C(C)=C1C3(C)C)[C@]1(OC(C)=O)CO[C@@H]1C[C@@H]2O [paclitaxel],Apoptotic fraction,MAT-LyLu prostate tumor; [2],14.5 ± 2.5^b %
same,Cell density,MAT-LyLu prostate tumor; [2],83 ± 4.69^b
same,Plasma conc. at end of Tx,MAT-LyLu prostate tumor; [2],1.42 ± 0.11 :g/ml
same,Tumor conc. at specified time,"MAT-LyLu prostate tumor; Group 1: 5 mg/kg/hr x 1 hr, then 0.83 x 6 hr at 24 hr, total 10 mg/kg, at 30 hr",3.94 ± 0.35 :g/g
same,higher tumor concentration in Group 1 than sum of Group 2 at 24 hr and Group 3 at 6 hr,MAT-LyLu prostate tumor; Group 1 at 30 hr,50%
same,Plasma conc. at end of Tx,"MAT-LyLu prostate tumor; Group 2A: 5 mg/kg/hr x 1 hr at 0 hr, total 5 mg/kg",6.01 ± 0.64 :g/ml
same,Apoptotic fraction,MAT-LyLu prostate tumor; [3],1.5 ± 0.9%
same,Cell density,MAT-LyLu prostate tumor; [3],120 ± 4.35
same,Tumor conc. at specified time,MAT-LyLu prostate tumor; [3],2.76 ± 0.57 :g/g
same,Apoptotic fraction,MAT-LyLu prostate tumor; [4],11.2 ± 2.3^c %
same,Cell density,MAT-LyLu prostate tumor; [4],85 ± 4.52
same,Tumor conc. at specified time,MAT-LyLu prostate tumor; [4],<0.35 at :g/g
same,Apoptotic fraction,MAT-LyLu prostate tumor; [5],3.5 ± 1.5%
same,Cell density,MAT-LyLu prostate tumor; [5],112 ± 6.08
same,Plasma conc. at end of Tx,MAT-LyLu prostate tumor; [5],1.31 ± 0.12 :g/ml
same,Tumor conc. at specified time,"MAT-LyLu prostate tumor; Group 3: 0.83 mg/kg/hr x 6 hr at 0 hr, total 5 mg/kg, at 6 hr",2.26 ± 0.13 :g/g
same,Apoptotic fraction,MAT-LyLu prostate tumor; [6],5.8 ± 2.2%
same,Cell density,MAT-LyLu prostate tumor; [6],108 ± 5.78
same,Plasma conc. at end of Tx,MAT-LyLu prostate tumor; [6],2.98 ± 0.60 :g/ml
same,Tumor conc. at specified time,"MAT-LyLu prostate tumor; Group 4: 5 mg/kg/hr x 1 hr at 0 hr + 0.83 x 6 hr at 1.2 hr, total 10 mg/kg, at 7.2 hr",3.24 ± 0.31 :g/g
same,Apoptotic fraction,MAT-LyLu prostate tumor; [7],6.5 ± 1.6%
same,Cell density,MAT-LyLu prostate tumor; [7],115 ± 5.18
same,Plasma conc. at end of Tx,MAT-LyLu prostate tumor; [7],1.50 ± 0.06 :g/ml
same,Tumor conc. at specified time,"MAT-LyLu prostate tumor; Group 5: 0.83 mg/kg/hr x 12 hr, total 10 mg/kg, at 12 hr",2.95 ± 0.34 :g/g
same,higher cell (density) in Group 5 compared to Group 1,MAT-LyLu prostate tumor; end of treatment,25%
same,higher cell density in Group 4 compared to Group 1,MAT-LyLu prostate tumor; end of treatment,30%
same,lower apoptosis in Group 4 compared to Group 1,MAT-LyLu prostate tumor; end of treatment,60%
same,lower apoptosis in Group 5 compared to Group 1,MAT-LyLu prostate tumor; end of treatment,35%
same,lower drug concentration in Group 4 compared to Group 1,MAT-LyLu prostate tumor; end of treatment,18%
same,lower drug concentration in Group 5 at 12 hr than Group 1 at 30 hr,"MAT-LyLu prostate tumor; rat, in vivo",25%
same,difference between plasma concentrations at end of 6 and 12 hr infusions,MAT-LyLu prostate tumor; rats,13%
same,half-life,"[1]; plasma, rats, intravenous infusion, read-out: major half-life (converted)",1.1 h
same,Kp,"[1]; 5 mg/kg, Group 2A: 5 mg/kg/hr x 1 hr at 0 hr, total 5 mg/kg",0.46 ± 0.09
same,Kp,"[1]; 5 mg/kg, Group 3: 0.83 mg/kg/hr x 6 hr at 0 hr, total 5 mg/kg",1.73 ± 0.18
same,Kp,"[1]; 10 mg/kg, Group 1: 5 mg/kg/hr x 1 hr, then 0.83 x 6 hr at 24 hr, total 10 mg/kg",2.8 ± 0.28
same,Kp,"[1]; 10 mg/kg, Group 4: 5 mg/kg/hr x 1 hr at 0 hr + 0.83 x 6 hr at 1.2 hr, total 10 mg/kg",1.2 ± 0.3
same,Kp,"[1]; 10 mg/kg, Group 5: 0.83 mg/kg/hr x 12 hr, total 10 mg/kg",1.98 ± 0.23
same,Mass balance,FaDu xenograft tumors; initial Cmedium 12 nM,92.5 ± 5.1%
same,Steady state Cmedium,FaDu xenograft tumors; initial Cmedium 12 nM,9.09 ± 0.27 nM
same,Mass balance,FaDu xenograft tumors; initial Cmedium 120 nM,86.5 ± 2.8%
same,Steady state Cmedium,FaDu xenograft tumors; initial Cmedium 120 nM,89.7 ± 13.3 nM
same,Mass balance,"FaDu xenograft tumors; initial Cmedium 1,200 nM",89.4 ± 5.7%
same,Steady state Cmedium,"FaDu xenograft tumors; initial Cmedium 1,200 nM",887 ± 131 nM
same,Mass balance,"FaDu xenograft tumors; initial Cmedium 12,000 nM",90.2 ± 5.4%
same,Steady state Cmedium,"FaDu xenograft tumors; initial Cmedium 12,000 nM","8,910 ± 267 nM"
same,Apoptotic fraction,FaDu tumor histocultures; [8],23.6 ± 1.3%
same,Cell density,FaDu tumor histocultures; [8],64.2 ± 3.5
same,Apoptotic fraction,"FaDu tumor histocultures; 4 hr, without pretreatment",3.93 ± 0.87%
same,Cell density,"FaDu tumor histocultures; 4 hr, without pretreatment",86.3 ± 4.0
same,Apoptotic fraction,FaDu tumor histocultures; [9],24.6 ± 4.8%
same,Cell density,FaDu tumor histocultures; [9],64.3 ± 1.8
same,Apoptotic fraction,"FaDu tumor histocultures; 16 hr, without pretreatment",4.98 ± 0.84%
same,Cell density,"FaDu tumor histocultures; 16 hr, without pretreatment",80.2 ± 2.9
same,Apoptotic fraction,FaDu tumor histocultures; [10],26.6 ± 2.4%
same,Cell density,FaDu tumor histocultures; [10],64.0 ± 5.2
same,Apoptotic fraction,"FaDu tumor histocultures; 24 hr, without pretreatment",7.32 ± 1.80%
same,Cell density,"FaDu tumor histocultures; 24 hr, without pretreatment",81.6 ± 2.5
same,Apoptotic fraction,FaDu tumor histocultures; [11],30.1 ± 3.4%
same,Cell density,FaDu tumor histocultures; [11],60.1 ± 4.2
same,Apoptotic fraction,"FaDu tumor histocultures; 32 hr, without pretreatment",6.64 ± 1.07%
same,Cell density,"FaDu tumor histocultures; 32 hr, without pretreatment",79.9 ± 2.1
